The values that follow come from US20260035670A1, “IN VITRO CONSTRUCT USEFUL FOR DRUG TOXICITY SCREENING” (Wake Forest University Health Sciences, priority 2022, published 2026).

Series [1] relates to USC in 3D silk fiber matrix (3D USC-SFM). Kind of series: mtDNA content (q-PCR) and mitochondrial mass of USC in 3D USC-SFM treated with ddC. In kind it is cell-based, human. On the procedure:
(§1) To determine the dose effect of ddC on cell viability, mitochondrial function and oxidative stress of USC in both 3D cultures, ddC was added to spheroids and USC-SFM at different doses: […] 2 days, 3 replicates per concentration. To evaluate the time-dependent effect of ddC on USC in 3D cultures, spheroids and USC-SFM samples were assayed 2-6 weeks after administering ddC, 3 replicates per time point. DMSO (0.1%) was used as a control.
(§2) To measure the levels of cell senescence genes ([…], 21 and Rb) (Kang et al. Science 349 (2015) aaa5612) and mitochondrial DNA (mtDNA) content, mRNA expression of spheroid (n ¼ 3) and 3D USC-SFM (n ¼ 3) samples were assessed using BioRad CFX connect Real-time PCR Detection System (Rooney et al. Methods Mol. Biol. 1241 (2015) 23e38). Genomic DNA was extracted from the cells using a DNeasy Blood & Tissue Kit (Qiagen, Valencia, Cat. No 69504) according to the manufacturer's protocol. The Q-PCR recipe was a mix with SYBR Green SuperMix (ThermoFisher, USA, Cat. No 4367659) using both the mitochondrial and the nuclear primers, and this temperature cycling was used: initial denaturing at 50° C. for 2 min, 95° C. for 15 min, followed by 40 cycles of denaturing at 95° C. for 30 s, annealing at 60° C. for 1 s and extension at 95° C. for 15 s, 60° C. for 1 min, annealing at 95° C. for 15 s, 60° C. for 1 min and dissociating at 95° C. for 15 s.

For another series, the system named is USC in 3D spheroids. The series can be described thus: mtDNA content (q-PCR) and mitochondrial mass of USC in 3D spheroids treated with ddC. In kind it is cell-based, human. The method, then:
(§3) To determine the dose effect of ddC on cell viability, mitochondrial function and oxidative stress of USC in both 3D cultures, ddC was added to spheroids and USC-SFM at different doses: 0.2, 2 and 10 μM in the culture medium every 2 days, 3 replicates per concentration. To evaluate the time-dependent effect of ddC on USC in 3D cultures, spheroids and USC-SFM samples were assayed 2-6 weeks after administering ddC, 3 replicates per time point. DMSO (0.1%) was used as a control.
as §2

Another series has as its system USC in 3D USC-SFM. Kind of series: Cell viability/growth of 3D USC-SFM treated with ddC (CCK-8). In kind it is cell-based, human. The method, then:
as §3, with “Cell proliferation or viability was measured at different time points after USC were seeded on 2D, spheroids and 3D-SFM in 96-well plates, respectively, assessed by Cell Counting Kit-8 (CCK-8 assay, Dojindo, Japan), according to manufacturer's instructions. The absorbance at 450 nmwas measured using microplate reader (MultiSkan FC, Thermo, USA). To determine” for “To determine”

Another series has as its system USC in 2D culture. The series can be described thus: Cell viability and growth of USC in 2D culture treated with ddC. Type of series: cell-based, human. The method, then: Cell proliferation or viability was measured at different time points after USC were seeded on 2D, spheroids and 3D-SFM in 96-well plates, respectively, assessed by Cell Counting Kit-8 (CCK-8 assay, Dojindo, Japan), according to manufacturer's instructions. The absorbance at 450 nmwas measured using microplate reader (MultiSkan FC, Thermo, USA).

The subject of series [2] is oxidative phosphorylation complexes I-V in USC of 3D USC-SFM. The series can be described thus: Oxidative phosphorylation complexes I-V in 3D USC-SFM after ddC (Western blot). Type of series: cell-based, human. The method, then:
as §1
(§4) To generate sufficient cell numbers for immunoblot analysis, USC (5×10^5 cells) within spheroids and 1-SFM were loaded in 81-well molds made by Micro-Tissues 3D Petri Dish (Sigma, USA). USC in 2D culture were seeded onto a 6-well plate at a density of 5×10^5 cells/well as control. After a wash of the cell samples with PBS, the USC were harvested and incubated for 30 min in the presence of […] of lysis buffer (Pierce, Rockford, IL) with 1% protease/phosphatase inhibitor cocktail (Cell Signaling Technology, Danvers, MA), vortexing every 5 min during incubating. The lysate was clarified by centrifugation, and protein concentrations were tested by Pierce™ BCA Protein Assay Kit. Following separation in 15% SDS-PAGE gels, the proteins were transferred onto a PVDF membrane (ThermoFisher) by a Bio-Rad Trans-Blot SD Semi-Dry Transfer Cell under 12 V for 1 h.
(§5) Individual activity of oxidative phosphorylation complexes I, II, II IV, V94 and mitochondrial SOD2 in USC before or after treatment with ddC at three doses were assessed. The membrane was blocked for 30 min in PBS-0.1% Tween 20 (PBST) containing 5% bovine serum albumin (BSA), washed with PBST, and incubated with the primary antibodies for 2 h or 4° C. overnight, diluted by PBST containing 5% BSA. After extensive washing with PBST, the membrane was incubated in the secondary antibodies correspondingly for 1 h at room temperature. The washed membrane was treated with an Immobilon ECL Ultra Western HRP Substrate (Millipore Sigma) and analyzed with a Fujifilm LAS-3000 Luminescent Image Analyzer system.

For series [3], the system named is oxidative phosphorylation complexes I-V in USC of 3D spheroids. The series can be described thus: Oxidative phosphorylation complexes I-V in 3D USC spheroids after ddC (Western blot). In kind it is cell-based, human. On the procedure:
as §3, §4, §5

For the next series, the system named is microglia cells. To be noted: George et al. 2021; cited from earlier work.
The conditions of series [4]: Gorwood et al. 2020; cited from earlier work.
Another series concerns CD4+ T cells. To be noted: Korencak et al. 2019; cited from earlier work.
The mark [5] stands for this setting: 3D USC-SFM, six weeks after ddC (0.2, 2, and 10 μM), vs 0.1% DMSO control.
[6] abbreviates: 3D spheroids, six weeks after ddC (0.2, 2, and 10 µM), vs 0.1% DMSO control.

For `Nc1ccn([C@H]2CC[C@@H](CO)O2)c(=O)n1` [ddC, Zalcitabine], the “Levels of mtDNA content” value in [1] (3D USC-SFM, 2 and 6 weeks, ddC 0.2, 2, or 20 μM, vs DMSO standardized as 100%) is “significantly decreased”; in the series with USC in 3D spheroids (3D spheroid of USC, 2 and 6 weeks, ddC 0.2, 2, or 20 μM, vs DMSO standardized as 100%), “significantly decreased”. Moreover, the “Manner of decrease of mtDNA content” value in series [1] (3D USC-SFM, q-PCR) is “time-depended manner”; with USC in 3D spheroids (3D spheroids of USC, q-PCR), “dose-dependent manner”. Further, the mitochondrial mass result (in series [1] (setting [5]); in the series with USC in 3D spheroids (setting [6])) was “significantly decreased” each time. The mtDNA content result in series [1] (setting [5]) is reported as “significantly decreased”; in series [1] (ddC at 2 or 20 μM compared to 0.1 μM ddC, 3D culture of USC (model not given)), “significantly inhibited”; in the series on USC in 3D spheroids (setting [6]) it was “significantly decreased”. In the series on USC in 3D USC-SFM (3D USC-SFM, 3 days, or 1, 2, 4, and 6 weeks), the “cell survival and growth” value was “did not significantly affect”. In addition, the cytotoxicity entry in the series with USC in 3D USC-SFM (USC in 3D cultures) was “mild”. Besides, in the series on USC in 2D culture, the “cell viability and growth of USC” value was “significantly affected”. Moreover, the “cells remaining on the dishes” value with USC in 2D culture (2 weeks after ddC treatment) is on record as “few cells remaining”. Moreover, in series [2] (2 weeks, ddC 2 and 10 μM vs low dose (0.1 μM)), the “levels of complex I, and IV” value is given as “significantly decreased”. The “mitochondrial toxicity (decreasing levels of complexes I-IV)” value in series [2] (3D SFM) is “significant dose- and time-dependent”; in series [3] (spheroids), “significant dose- and time-dependent”. Besides, in series [2] (3D SFM-USC treated with ddC), the “Levels of complexes I, II, and III” value is “significantly decreased”. The “levels of complexes II, III and IV” value in [2] (3D USC-SFM compared to complex levels in spheroids) is reported as “significantly decreased”. Also, in series [2] (3D USC-SFM model), the “chronic MtT” value was “dose- and time-dependent chronic MtT displayed”. The “complex I-IV levels” value in [2] (3D USC-SFM, ddC 2 and 10 μM, 6 weeks compared to 2 weeks) is reported as “significantly decreased”. Further, the “increase of levels of complexes I, II and IV” value in [2] (3D USC-SFM, low dose ddC) is “did not occur”. In addition, in [2] (3D culture models), the “mitochondrial function (inhibiting oxidative phosphorylation complex I-IV)” value is given as “significant impairment”. Also, the “levels of complex I, II, III and IV” value in series [2] (6 weeks, middle and high dose ddC vs low dose) is reported as “significantly declined”. Besides, the “activity of complex II-IV” value in series [2] (USC-SFM, ddC middle and high doses vs low dose, week 6) is listed as “significantly decreased”. Further, the “expression of ETC complex I-IV” value is “decrease” in [2] (USC-SFM, ddC middle and high doses, wk 6); “decrease” in [3] (3D organoids, ddC middle and high doses, wk 6). Further, the “levels of complexes I, II and IV” value in series [3] (3D spheroids, low dose ddC) is reported as “significantly increased”. Further, the “complex I level (only complex affected)” value in series [3] (spheroids treated with ddC) is recorded as “declined”.

In the case of `C[C@@H]1CCO[C@H]2Cn3cc(C(=O)NCc4ccc(F)cc4F)c(=O)c(O)c3C(=O)N12` [dolutegravir], the mitochondrial dysfunction entry in the series with microglia cells is given as “induces mitochondrial dysfunction”. Besides, in series [4], the “pro-adipogenic and pro-lipogenic effects, oxidative stress, mitochondrial dysfunction, insulin resistance” value is “display pro-adipogenic and pro-lipogenic effects, and promote oxidative stress, mitochondrial dysfunction, and insulin resistance”. Further, in the series with CD4+ T cells, the “levels of mitochondrial ROS and mitochondrial mass” value was “increased”.

In the case of `COc1cc2c(cc1Cc1cccc(Cl)c1F)c(=O)c(C(=O)O)cn2[C@H](CO)C(C)C` [elvitegravir], the “levels of mitochondrial ROS and mitochondrial mass” value in the series on CD4+ T cells is on record as “increased”.
